# Reference: publication PMC3816717 (Bioorganic & medicinal chemistry, 2011)
# Target: T1, hCD22 (Homo sapiens, UniProt P20273)
# T1 sequence (P20273 20-326 limits assumed): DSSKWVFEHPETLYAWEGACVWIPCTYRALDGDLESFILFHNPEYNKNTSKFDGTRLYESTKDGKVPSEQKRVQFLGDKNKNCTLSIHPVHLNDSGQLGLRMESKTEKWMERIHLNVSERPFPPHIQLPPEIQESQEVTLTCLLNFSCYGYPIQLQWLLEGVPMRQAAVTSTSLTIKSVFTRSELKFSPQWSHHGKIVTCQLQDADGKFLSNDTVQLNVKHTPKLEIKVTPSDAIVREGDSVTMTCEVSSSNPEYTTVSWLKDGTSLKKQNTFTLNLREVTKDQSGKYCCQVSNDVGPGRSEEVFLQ
# Test: Competition ELISA
# Assay type: binding
row,SMILES,IC50
1,"COc1ccc(O[C@@H]2O[C@H](CO[C@]3(C(=O)O)C[C@H](O)[C@@H](NC(=O)CO)[C@H]([C@H](O)[C@H](O)CNC(=O)Cc4ccc(-c5ccc(O)cc5)cc4)O3)[C@H](O)[C@H](O)[C@H]2O)cc1 [Compound 1, 9-(4'-hydroxy-4-biphenyl)acetamido-9-deoxy-Neu5Gcα2-6GalOMP, reference compound]",3270 ± 620 nM
2,"COc1ccc(O[C@@H]2O[C@H](CO[C@]3(C(=O)O)C[C@H](O)[C@@H](NC(=O)CO)[C@H]([C@H](O)[C@H](O)CNCc4ccc(-c5ccc(O)cc5)cc4)O3)[C@H](O)[C@H](O)[C@H]2O)cc1 [Compound 2, 9-(4'-hydroxy-4-biphenyl)methylamino-9-deoxy-Neu5Gcα2-6GalOMP, reference compound]",3290 ± 330 nM
3,"O=C(Cc1ccc(-c2ccc(O)cc2)cc1)NC[C@@H](O)[C@@H](O)[C@@H]1O[C@@](OCc2ccccc2)(C(=O)O)C[C@H](O)[C@H]1NC(=O)CO [Compound 5, benzyl 3,5,9-trideoxy-5-glycolamido-9-(4′-hydroxy-4-biphenyl)acetamido-D-glycero-α-D-galacto-2-nonulopyranosidonic acid]",240 ± 50 nM
4,O=C(Cc1ccc(-c2ccc(O)cc2)cc1)NC[C@@H](O)[C@@H](O)[C@@H]1O[C@@](OCc2ccc(-c3ccccc3)cc2)(C(=O)O)C[C@H](O)[C@H]1NC(=O)CO [Compound 6],380 nM

# Continued, values first:
row,IC50,SMILES
1,2750 ± 1300 nM,"O=C(CO)N[C@H]1[C@H]([C@H](O)[C@H](O)CNCc2ccc(-c3ccc(O)cc3)cc2)O[C@@](OCc2ccccc2)(C(=O)O)C[C@@H]1O [Compound 8, Benzyl 3,5,9-trideoxy-5-glycolamido-9-(4′-hydroxy-4-biphenyl)methylamino-D-glycero-α-D-galacto-2-nonulopyranosidonic acid]"
2,2240 ± 280 nM,"O=C(CO)N[C@H]1[C@H]([C@H](O)[C@H](O)CNCc2ccc(-c3ccc(O)cc3)cc2)O[C@@](OCc2ccc(-c3ccccc3)cc2)(C(=O)O)C[C@@H]1O [Compound 9, (4-Biphenyl)methyl 3,5,9-trideoxy-5-glycolamido-9-(4′-hydroxy-4-biphenyl) methylamino-D-glycero-α-D-galacto-2-nonulopyranosidonic acid]"

# Target: mCD22 (Mus musculus, UniProt P35329)
# Test: Competition ELISA with biotinylated form of 1, mCD22Fc
# Assay type: binding, murine
row,fold less potent than 5 for CD22,SMILES
1,50 fold,"O=C(Cc1ccc(-c2ccc(F)cc2)cc1)NC[C@@H](O)[C@@H](O)[C@@H]1O[C@@](OCc2ccccc2)(C(=O)O)C[C@H](O)[C@H]1NC(=O)CO [Compound 7, Benzyl 3,5,9-trideoxy-5-glycolamido-9-(4′-fluoro-4-biphenyl)acetamido-D-glycero-α-D-galacto-2-nonulopyranosidonic acid]"
